The assay relates to MV-4-11 cells. Description: Gene expression microarray analysis (Affymetrix PrimeView) and GSEA. To be noted: ProbeSet 11717876_a_at; LIST D. It counts as cell-based, human. Also on record: RFU PODN (11730768_x_at) / Fold change /veh PODN (11730768_x_at) / RFU LINC00158 (11744669_a_at) / Fold change /veh LINC00158 (11744669_a_at) / RFU DUSP10 (11751237_a_at) / Fold change /veh DUSP10 (11751237_a_at) / RFU ID3 (11757404_x_at) / Fold change /veh ID3 (11757404_x_at) / RFU PLEKHG5 (11737974_s_at) / Fold change /veh PLEKHG5 (11737974_s_at) / RFU LRRC4B (11730491_at) / Fold change /veh LRRC4B (11730491_at) / RFU GIMAP4 (11747438_a_at) / Fold change /veh GIMAP4 (11747438_a_at) / RFU KRT8 (11758183_x_at) / Fold change /veh KRT8 (11758183_x_at) / RFU CNN1 (11734310_a_at) / Fold change /veh CNN1 (11734310_a_at) / RFU VPS37D (11726825_at) / Fold change /veh VPS37D (11726825_at) / RFU C10orf10 (11716522_x_at) / Fold change /veh C10orf10 (11716522_x_at) / RFU KIR2DL2 /// KIR2DL4 /// KIR2DL5A /// KIR2DL5B /// KIR2DS1 /// KIR2DS2 /// KIR2DS3 /// KIR2DS4 /// KIR3DL3 /// KIR3DL3 /// KIR3DS1 (11738374_at) / Fold change /veh KIR2DL2 /// KIR2DL4 /// KIR2DL5A /// KIR2DL5B /// KIR2DS1 /// KIR2DS2 /// KIR2DS3 /// KIR2DS4 /// KIR3DL3 /// KIR3DL3 /// KIR3DS1 (11738374_at) / RFU C1QL1 (11718748_at) / Fold change /veh C1QL1 (11718748_at) / RFU TMPRSS4 (11747572_a_at) / Fold change /veh TMPRSS4 (11747572_a_at) / RFU HAMP (11756126_x_at) / Fold change /veh HAMP (11756126_x_at) / RFU RNFT2 (11725882_a_at) / Fold change /veh RNFT2 (11725882_a_at) / RFU NR4A2 (11747474_a_at) / Fold change /veh NR4A2 (11747474_a_at) / RFU ABCC12 (11746883_a_at) / Fold change /veh ABCC12 (11746883_a_at) / RFU TMEM136 (11760407_x_at) / Fold change /veh TMEM136 (11760407_x_at) / RFU CLDN22 /// WWC2 (11732394_at) / Fold change /veh CLDN22 /// WWC2 (11732394_at) / RFU HLA-DPB1 (11760878_x_at) / Fold change /veh HLA-DPB1 (11760878_x_at) / RFU SPINT1 (11716480_a_at) / Fold change /veh SPINT1 (11716480_a_at) / RFU GAP43 (11754022_s_at) / Fold change /veh GAP43 (11754022_s_at) / RFU A4GNT (11735810_at) / Fold change /veh A4GNT (11735810_at) / RFU PRB3 (11715151_x_at) / Fold change /veh PRB3 (11715151_x_at) / RFU TUBB4B (11761932_at) / Fold change /veh TUBB4B (11761932_at) / RFU CAPN14 (11732068_a_at) / Fold change /veh CAPN14 (11732068_a_at) / RFU TMCC2 (11721928_a_at) / Fold change /veh TMCC2 (11721928_a_at) / RFU IRGQ (11745062_a_at) / Fold change /veh IRGQ (11745062_a_at) / RFU FAM174B (11720279_a_at) / Fold change /veh FAM174B (11720279_a_at) / RFU TMPRSS4 (11748680_a_at) / Fold change /veh TMPRSS4 (11748680_a_at) / RFU FAM212B (11763350_a_at) / Fold change /veh FAM212B (11763350_a_at) / RFU PLEKHG5 (11743358_a_at) / Fold change /veh PLEKHG5 (11743358_a_at) / RFU ZSCAN30 (11745921_a_at) / Fold change /veh ZSCAN30 (11745921_a_at) / RFU CMKLR1 (11741424_a_at) / Fold change /veh CMKLR1 (11741424_a_at) / RFU LOC101060620 /// MAPK8IP1 (11723275_at) / Fold change /veh LOC101060620 /// MAPK8IP1 (11723275_at) / RFU SPTSSB (11747773_x_at) / Fold change /veh SPTSSB (11747773_x_at) / RFU PRSS12 (11739890_at) / Fold change /veh PRSS12 (11739890_at) / RFU BIN1 (11741810_x_at) / Fold change /veh BIN1 (11741810_x_at) / RFU WNT11 (11732464_a_at) / Fold change /veh WNT11 (11732464_a_at) / RFU C10orf10 (11716521_a_at) / Fold change /veh C10orf10 (11716521_a_at) / RFU C5orf56 (11738089_at) / Fold change /veh C5orf56 (11738089_at) / RFU CYB561 (11721691_x_at) / Fold change /veh CYB561 (11721691_x_at) / RFU ANKRD19P (11752326_a_at) / Fold change /veh ANKRD19P (11752326_a_at) / RFU OR2T12 /// OR2T33 /// OR2T8 (11738714_s_at) / Fold change /veh OR2T12 /// OR2T33 /// OR2T8 (11738714_s_at) / RFU VCAN (11748164_a_at) / Fold change /veh VCAN (11748164_a_at) / RFU JSRP1 (11732532_at) / Fold change /veh JSRP1 (11732532_at) / RFU KRTAP10-11 (11738290_x_at) / Fold change /veh KRTAP10-11 (11738290_x_at) / RFU MYO3A (11730013_a_at) / Fold change /veh MYO3A (11730013_a_at) / RFU EBF3 (11725865_a_at) / Fold change /veh EBF3 (11725865_a_at) / RFU CAMK2N1 (11719241_x_at) / Fold change /veh CAMK2N1 (11719241_x_at) / RFU C5orf56 (11738088_a_at) / Fold change /veh C5orf56 (11738088_a_at) / RFU OLFML3 (11715873_a_at) / Fold change /veh OLFML3 (11715873_a_at) / RFU LOC100653217 /// NTM (11731650_a_at) / Fold change /veh LOC100653217 /// NTM (11731650_a_at) / RFU MAPK11 (11762145_a_at) / Fold change /veh MAPK11 (11762145_a_at) / RFU FIZ1 (11724087_x_at) / Fold change /veh FIZ1 (11724087_x_at) / RFU OASL (11726364_x_at) / Fold change /veh OASL (11726364_x_at) / RFU SOX15 (11748057_x_at) / Fold change /veh SOX15 (11748057_x_at) / RFU CD79A (11719716_a_at) / Fold change /veh CD79A (11719716_a_at) / RFU HIST1H1D (11736915_at) / Fold change /veh HIST1H1D (11736915_at) / RFU CASKIN2 (11723855_a_at) / Fold change /veh CASKIN2 (11723855_a_at) / RFU LOC730098 (11760151_x_at) / Fold change /veh LOC730098 (11760151_x_at) / RFU OR4N2 (11742367_at) / Fold change /veh OR4N2 (11742367_at) / RFU PRRT2 (11749266_a_at) / Fold change /veh PRRT2 (11749266_a_at) / RFU SNX32 (11753110_a_at) / Fold change /veh SNX32 (11753110_a_at) / RFU CDHR5 (11726645_a_at) / Fold change /veh CDHR5 (11726645_a_at) / RFU RCAN1 (11760418_a_at) / Fold change /veh RCAN1 (11760418_a_at) / RFU FAM167A (11723789_a_at) / Fold change /veh FAM167A (11723789_a_at) / RFU FAM26E (11764081_at) / Fold change /veh FAM26E (11764081_at) / RFU ISYNA1 (11749810_s_at) / Fold change /veh ISYNA1 (11749810_s_at) / RFU ACY1 (11761880_at) / Fold change /veh ACY1 (11761880_at) / RFU 11764098_at / Fold change /veh 11764098_at / RFU SAMD14 (11745864_x_at) / Fold change /veh SAMD14 (11745864_x_at) / RFU NPB (11741838_a_at) / Fold change /veh NPB (11741838_a_at) / RFU TMPRSS6 (11731388_a_at) / Fold change /veh TMPRSS6 (11731388_a_at) / RFU KRTAP10-2 (11738614_at) / Fold change /veh KRTAP10-2 (11738614_at) / RFU ARHGAP8 /// PRR5-ARHGAP8 (11727945_x_at) / Fold change /veh ARHGAP8 /// PRR5-ARHGAP8 (11727945_x_at) / RFU KRTAP5-7 /// NADSYN1 (11734609_at) / Fold change /veh KRTAP5-7 /// NADSYN1 (11734609_at) / RFU RASL12 (11751679_a_at) / Fold change /veh RASL12 (11751679_a_at) / RFU CDKN2B (11736163_a_at) / Fold change /veh CDKN2B (11736163_a_at) / RFU PRF1 (11729649_at) / Fold change /veh PRF1 (11729649_at) / RFU, ZNF638 /// ZNF638-IT1 / Fold change vs veh, ZNF638 /// ZNF638-IT1 / RFU, PANK3 / Fold change vs veh, PANK3 / RFU, SH3YL1 / Fold change vs veh, SH3YL1 / RFU, ZEB2 / Fold change vs veh, ZEB2 / RFU, NRIP1 / Fold change vs veh, NRIP1 / RFU, PTTG1IP / Fold change vs veh, PTTG1IP / RFU, CAPN2 / Fold change vs veh, CAPN2 / RFU, MED14 / Fold change vs veh, MED14 / RFU, SNORA58 / Fold change vs veh, SNORA58 / RFU, C1orf63 / Fold change vs veh, C1orf63 / RFU, LRRFIP1 / Fold change vs veh, LRRFIP1 / RFU, NDUFAF7 / Fold change vs veh, NDUFAF7 / RFU, SLC12A2 / Fold change vs veh, SLC12A2 / RFU, IBTK / Fold change vs veh, IBTK / RFU, ESF1 / Fold change vs veh, ESF1 / Fold change vs veh, TMEM50B / RFU, TAOK1 / Fold change vs veh, TAOK1 / RFU, ACBD3 / Fold change vs veh, ACBD3 / RFU, TMA16 / Fold change vs veh, TMA16 / RFU, RWDD3 / Fold change vs veh, RWDD3 / RFU, BCAT1 / Fold change vs veh, BCAT1 / RFU, EDEM3 / Fold change vs veh, EDEM3 / RFU, TMEM33 / Fold change vs veh, TMEM33 / RFU, WDR75 / Fold change vs veh, WDR75 / RFU, AHCTF1 / Fold change vs veh, AHCTF1 / RFU, TFRC / Fold change vs veh, TFRC / RFU, ZDHHC17 / Fold change vs veh, ZDHHC17 / RFU, NOM1 / Fold change vs veh, NOM1 / RFU, ARL8B / Fold change vs veh, ARL8B / RFU, ZBTB11 / Fold change vs veh, ZBTB11 / RFU, TAMM41 / Fold change vs veh, TAMM41 / RFU, KIAA1704 /// LOC100996395 / Fold change vs veh, KIAA1704 /// LOC100996395 / RFU, ING1 / Fold change vs veh, ING1 / RFU, TRMT61B / Fold change vs veh, TRMT61B / RFU, FUBP3 / Fold change vs veh, FUBP3 / RFU, TP53 / Fold change vs veh, TP53 / RFU, TNKS2 / Fold change vs veh, TNKS2 / RFU, ZFP14 / Fold change vs veh, ZFP14 / RFU, ACTR2 / Fold change vs veh, ACTR2 / RFU, PPP3R1 / Fold change vs veh, PPP3R1 / RFU, PIK3R1 / Fold change vs veh, PIK3R1 / RFU, HNRNPA1 / Fold change vs veh, HNRNPA1 / RFU, RNF170 / Fold change vs veh, RNF170 / RFU, ZNF28 / Fold change vs veh, ZNF28 / RFU, RNGTT / Fold change vs veh, RNGTT / RFU, OGT / Fold change vs veh, OGT / RFU, BRD1 / Fold change vs veh, BRD1 / RFU, MARS / Fold change vs veh, MARS / RFU, ZNF655 / Fold change vs veh, ZNF655 / RFU, FAHD1 / Fold change vs veh, FAHD1 / RFU, BDP1 / Fold change vs veh, BDP1 / RFU, LRRCC1 / Fold change vs veh, LRRCC1 / RFU, ARID1A / Fold change vs veh, ARID1A / RFU, ZNF146 / Fold change vs veh, ZNF146 / RFU, ZNF330 / Fold change vs veh, ZNF330 / RFU, GPN3 / Fold change vs veh, GPN3 / RFU, C9orf123 / Fold change vs veh, C9orf123 / RFU, N4BP2L2 / Fold change vs veh, N4BP2L2 / RFU, ARFIP1 / Fold change vs veh, ARFIP1 / RFU, FAM179B / Fold change vs veh, FAM179B / RFU, BCL10 / Fold change vs veh, BCL10 / RFU, UHRF1BP1L / Fold change vs veh, UHRF1BP1L / RFU, BET1 / Fold change vs veh, BET1 / RFU, CNOT2 / Fold change vs veh, CNOT2 / RFU, ZNF268 / Fold change vs veh, ZNF268 / Fold change vs veh, ZNF507 / RFU, DGCR2 / Fold change vs veh, DGCR2 / RFU, WDSUB1 / Fold change vs veh, WDSUB1 / Fold change vs veh, HSP90B1 /// MIR3652 / RFU, ADSS / Fold change vs veh, ADSS / RFU, GK / Fold change vs veh, GK / RFU, ZNF148 / Fold change vs veh, ZNF148 / RFU, TAF9 / Fold change vs veh, TAF9 / RFU, SLC1A5 / Fold change vs veh, SLC1A5 / RFU, SLMO2 / Fold change vs veh, SLMO2 / RFU, ABCC4 / Fold change vs veh, ABCC4 / RFU, LOC101060439 /// RAP1B / Fold change vs veh, LOC101060439 /// RAP1B / RFU, RFX7 / Fold change vs veh, RFX7 / RFU, GTPBP10 / Fold change vs veh, GTPBP10 / RFU, CNEP1R1 / Fold change vs veh, CNEP1R1 / RFU, BIVM-ERCC5 /// ERCC5 / Fold change vs veh, BIVM-ERCC5 /// ERCC5 / RFU, ILF3 / Fold change vs veh, ILF3 / RFU 11762660_at / Fold change /veh 11762660_at / RFU VCAN (11757783_s_at) / Fold change /veh VCAN (11757783_s_at) / RFU DDX43 (11728927_at) / Fold change /veh DDX43 (11728927_at) / RFU KRT8 (11758188_x_at) / Fold change /veh KRT8 (11758188_x_at) / RFU NKD1 (11759106_at) / Fold change /veh NKD1 (11759106_at) / RFU SRD5A1 (11742802_a_at) / Fold change /veh SRD5A1 (11742802_a_at) / RFU TPSAB1 /// TPSB2 (11721975_s_at) / Fold change /veh TPSAB1 /// TPSB2 (11721975_s_at) / RFU GSTM3 (11746129_a_at) / Fold change /veh GSTM3 (11746129_a_at) / RFU IL23R (11737362_x_at) / Fold change /veh IL23R (11737362_x_at) / RFU TMEM51 (11727254_a_at) / Fold change /veh TMEM51 (11727254_a_at) / RFU PIWIL2 (11732686_x_at) / Fold change /veh PIWIL2 (11732686_x_at) / RFU ORM1 (11744905_x_at) / Fold change /veh ORM1 (11744905_x_at) / RFU CCDC152 (11743942_at) / Fold change /veh CCDC152 (11743942_at) / RFU ECM1 (11717891_a_at) / Fold change /veh ECM1 (11717891_a_at) / RFU IL23R (11748794_a_at) / Fold change /veh IL23R (11748794_a_at) / RFU TNFAIP8L3 (11732012_x_at) / Fold change /veh TNFAIP8L3 (11732012_x_at) / RFU MBOAT4 (11741988_at) / Fold change /veh MBOAT4 (11741988_at) / RFU 11764193_at / Fold change /veh 11764193_at / RFU TMEM53 (11763286_at) / Fold change /veh TMEM53 (11763286_at) / RFU MAGEB2 (11727129_at) / Fold change /veh MAGEB2 (11727129_at) / RFU TMEM200A (11744735_a_at) / Fold change /veh TMEM200A (11744735_a_at) / RFU CCDC152 (11751479_a_at) / Fold change /veh CCDC152 (11751479_a_at) / RFU FAM211A (11726209_a_at) / Fold change /veh FAM211A (11726209_a_at) / RFU RGS16 (11746705_a_at) / Fold change /veh RGS16 (11746705_a_at) / RFU VCAN (11755009_s_at) / Fold change /veh VCAN (11755009_s_at) / RFU RHOB (11743442_s_at) / Fold change /veh RHOB (11743442_s_at) / RFU RGS16 (11720943_a_at) / Fold change /veh RGS16 (11720943_a_at) / RFU RGS16 (11720944_at) / Fold change /veh RGS16 (11720944_at) / RFU, VPS4B / Fold change vs veh, VPS4B / RFU, CREB1 / Fold change vs veh, CREB1 / RFU, DNAJC13 / Fold change vs veh, DNAJC13 / RFU, GNAQ / Fold change vs veh, GNAQ / RFU, CDK5R1 / Fold change vs veh, CDK5R1 / RFU, ZRANB3 / Fold change vs veh, ZRANB3 / RFU, CUL4A / Fold change vs veh, CUL4A / RFU, CCNY / Fold change vs veh, CCNY / RFU, UFL1 / Fold change vs veh, UFL1 / RFU, COG3 / Fold change vs veh, COG3 / RFU, DIAPH2 / Fold change vs veh, DIAPH2 / RFU, SKA2 / Fold change vs veh, SKA2 / RFU, AFF3 / Fold change vs veh, AFF3 / RFU, LMF1 / Fold change vs veh, LMF1 / RFU, IPO11 / Fold change vs veh, IPO11 / RFU, DFFB / Fold change vs veh, DFFB / RFU, FOXP1 / Fold change vs veh, FOXP1 / RFU, CARD8 / Fold change vs veh, CARD8 / RFU, STRN3 / Fold change vs veh, STRN3 / RFU, ADK / Fold change vs veh, ADK / RFU, RASSF2 / Fold change vs veh, RASSF2 / RFU, WIPF1 / Fold change vs veh, WIPF1 / RFU, LARP1B / Fold change vs veh, LARP1B / RFU, RASA1 / Fold change vs veh, RASA1 / RFU, RB1 / Fold change vs veh, RB1 / RFU, PPFIA1 / Fold change vs veh, PPFIA1 / RFU, MAT2A / Fold change vs veh, MAT2A / RFU, CCT5 / Fold change vs veh, CCT5 / RFU, WDR92 / Fold change vs veh, WDR92 / RFU, CUX1 / Fold change vs veh, CUX1 / RFU, TTC7A / Fold change vs veh, TTC7A / RFU, TMEM135 / Fold change vs veh, TMEM135 / RFU, DEPTOR / Fold change vs veh, DEPTOR / RFU, CPM / Fold change vs veh, CPM / RFU, DNAJB6 / Fold change vs veh, DNAJB6 / RFU, CACNA2D3 / Fold change vs veh, CACNA2D3 / RFU, DTX4 / Fold change vs veh, DTX4 / RFU, TFCP2 / Fold change vs veh, TFCP2 / RFU, GMCL1 /// GMCL1P1 / Fold change vs veh, GMCL1 /// GMCL1P1 / RFU, AEBP2 / Fold change vs veh, AEBP2 / RFU, SNHG1 /// SNORD22 /// SNORD25 /// SNORD26 /// SNORD27 /// SNORD28 /// SNORD29 /// SNORD31 / Fold change vs veh, SNHG1 /// SNORD22 /// SNORD25 /// SNORD26 /// SNORD27 /// SNORD28 /// SNORD29 /// SNORD31 / Fold change (Aza/veh), C12orf56 (ProbeSet 11735607_a_at) / Fold change (ACY-1035/veh), C12orf56 (ProbeSet 11735607_a_at) / Fold change (Aza/veh), FGFR1OP (ProbeSet 11751329_s_at) / Fold change (ACY-1035/veh), FGFR1OP (ProbeSet 11751329_s_at) / Fold change (Aza/veh), VPS36 (ProbeSet 11739960_a_at) / Fold change (ACY-1035/veh), VPS36 (ProbeSet 11739960_a_at) / RFU SYPL1 (11715823_x_at) / Fold change /veh SYPL1 (11715823_x_at) / RFU IGFBP7 (11715501_s_at) / Fold change /veh IGFBP7 (11715501_s_at) / RFU REEP3 (11722064_at) / Fold change /veh REEP3 (11722064_at) / RFU IGLL1 (11728026_x_at) / Fold change /veh IGLL1 (11728026_x_at): dose or concentration left out as unconfirmed.

Structures are written as SMILES.

In the case of `Nc1ccc(-c2cccs2)cc1NC(=O)c1ccc2c(c1)cc(C1CC1)n2CCN1CCOCC1` [ACY-1035], the “RFU, PPFIA1” value was found to be 30.94 RFU.

Values taken from PMC5218480 (PLoS ONE, 2017).
